{
  "source": "patent US20180346731A1",
  "about": "“Formation of Stable Pyranoanthocyanins, and Uses Thereof as Sources of Natural Color” (Ohio State Innovation Foundation, priority 2017, published 2018)",
  "key": {"[1]": {"test": "UV-Vis absorbance loss and first-order bleaching kinetics of pigment solutions with ascorbic acid (pH 3.0 citrate buffer, 25° C., dark)", "type": "physicochemical", "conditions": "for K (reaction rate, first-order) / t1/2: 25° C. dark", "method": "The semi-purified chokeberry extract, the isolated cyanidin-3-galactoside, and the purified 5-carboxypyranocyanidin-3-galactoside were diluted in pH 3.0 citrate buffer (0.1 M adjusted with HCl) until an absorbance of 1.0 at their respective λmax was reached. Levels of AA of 250, 500, and 1000 mg/L were added using a concentrated ascorbic acid stock solution, and a control consisting of each pigment with the absence of AA was maintained. The control consisted of the pigment in the buffer in the absence of AA. An additional test was performed with the same model juice using hydrogen peroxide, a known degradation product of AA. To determine if AA bleaching was due to formation of H2O2, direct addition of it was investigated. In place of added AA, a 62.2 μL of a 0.3% peroxide solution was added to match the molar equivalency of the 500 mg/L AA level, which was 2.84 mM. All samples were brought to the same final volume with additional citrate buffer. […] Samples were stored in the dark at 25° C. in an incubator. UV-Vis spectrophotometry, colorimetry, and HPLC analyses were conducted over a 5 day period following the addition of ascorbic acid or hydrogen peroxide. UV-Vis spectral data was collected every hour for the first 8 hours, and then at 12 hr, and daily from that point on for 5 days. […] HPLC analyses were conducted on days 0, 1, 3, and 5. All treatments were run in triplicate. A SpectraMax 190 Microplate Reader (Molecular Devices, Sunnyvale, Calif., U.S.) with a 96-well plate (poly-D-lysine coated polystyrene) were used for the evaluation of absorbance from 380-700 nm, 1 nm intervals. Aliquots (200 uL) of samples were loaded into individual wells, and a blank consisted of the same citrate buffer used. Because of the rapid nature of AA-induced color loss, degradation kinetics were evaluated in terms of change in maximum absorbance at the original λmax over time. Bleaching is a first-order reaction, typical of ACN degradation, and was modeled as such in determining the reaction rate and half-life. The decrease in maximum absorbance correlated with an increase in lightness (L*) as well as the decrease in chroma (c*). The reduction in maximum absorbance did closely follow first-order kinetics for chokeberry extract and cyanidin-3-galactoside but slightly deviated for 5-carboxypyranocyanidin-3-galactoside. […] The kinetics results for each pigment and AA level can be found in Table 3 below."}, "[2]": {"test": "Anthocyanin survival of control treatments at pH 2.5 (uHPLC AUC 500-520 nm)", "type": "physicochemical", "conditions": "pH 2.5 acidified water, no pyruvic acid, 25° C., day 31", "method": "FIG. 10: Pyranoanthocyanin yield for anthocyanins (500 μM) subjected to pyruvic acid treatment (×100 M ratio) and anthocyanin survival of control treatments at pH 2.5 acidified water at day 7, 14, and 31. Yield defined as (AUC500-520 nm of PACN at tn/AUC500-520 nm of ACN @t0)*100. Survival defined as (AUC500-520 nm of ACN at tn/AUC500-520 nm of ACN @ t0)*100. Values shown are means (n=3) and bars represent standard deviation.\nA uHPLC system (Shimadzu Nexera-i LC-2040C, Maryland, U.S.) coupled with tandem MS (Shimadzu LCMS-8040, Maryland, U.S.) was used in evaluating initial anthocyanin purity and monitoring changes in anthocyanins with and without pyruvic acid treatment over time. A 0.4 mL/min flow rate was used on a Pinnacle DB (Restek Corporation, Bellefonte, Pa.) C18 Column (1.9 μm particle size, 50×2.1 mm length). The column oven was set at 40° C. The following gradient of solvent A (4.5% formic acid) and B (100% acetonitrile) was used: 0% B for the first minute, ramped to 15% B by 10 min. This method was effective for separation of the formed pyranoanthocyanin from anthocyanin for all isolates except cy3rut which coeluted with the formed pyranoanthocyanin. This was observed through MS-MS data. […]\nQuantification of pigments was conducted on day 0, 3, 7, 14, and 31 using a standard curve of cyanidin-3-glucoside (Sigma Aldrich, St. Louis, Mo., U.S.) run under the same conditions used for isolates. Molar absorptivities of anthocyanins and carboxypyranoanthocyanidins have been reported as being relatively similar and were thought to provide a basis of confidence in using AUC500-520 nm as a quantitative measure of pyranoanthocyanin yield.\nPrior to dilution, the concentrations of the isolated pigment extracts were determined by the pH differential method for subsequent dilution to known concentrations. The isolates were then diluted to 500 μM (expressed as Cyanidin-3-glucoside equivalents) in pH 2.5 deionized water (previously adjusted with HCl) which contained 0.1% potassium sorbate (w/v) and 0.1% sodium benzoate (w/v) to function as preservative agents during storage. […]"}},
  "data": [
    {"compound": "OC[C@H]1O[C@@H](Oc2cc3c(O)cc(O)cc3[o+]c2-c2ccc(O)c(O)c2)[C@H](O)[C@@H](O)[C@H]1O", "note": "[Cyanidin-3-galactoside, cyanidin-3-galactoside]", "values": [
      {"measurement": "K (reaction rate, first-order)", "setting": "[1]; 250 mg/L AA", "value": "3.18E−02"},
      {"measurement": "t1/2", "setting": "[1]; 250 mg/L AA", "value": 22, "unit": "h"},
      {"measurement": "reduction in maximum absorbance", "setting": "[1]; 500 mg/L AA, 5 day period", "value": 88, "unit": "%"},
      {"measurement": "λmax after hypsochromic change", "setting": "[1]; 500 mg/L AA, after treatment", "value": 509, "unit": "nm"},
      {"measurement": "λmax before hypsochromic change", "setting": "[1]; 500 mg/L AA, start", "value": 511, "unit": "nm"},
      {"measurement": "K (reaction rate, first-order)", "setting": "[1]; 500 mg/L AA", "value": "5.90E−02"},
      {"measurement": "t1/2", "setting": "[1]; 500 mg/L AA", "value": 12, "unit": "h"},
      {"measurement": "K (reaction rate, first-order)", "setting": "[1]; 1000 mg/L AA", "value": "8.64E−02"},
      {"measurement": "t1/2", "setting": "[1]; 1000 mg/L AA", "value": 8, "unit": "h"},
      {"measurement": "slope of reaction rate vs AA level (susceptibility to AA), relative to 5-carboxypyranocyanidin-3-galactoside", "setting": "[1]; AA 0-1000 mg/L", "value": 8.2, "unit": "×"},
      {"measurement": "slope of reaction rate vs AA level, relative to chokeberry extract", "setting": "[1]; AA 0-1000 mg/L", "value": 3.1, "unit": "×"},
      {"measurement": "t1/2", "setting": "[1]; Control, no AA", "value": 546, "unit": "h"},
      {"measurement": "K (reaction rate, first-order)", "setting": "[1]; Control, no AA, absorbance at λvis-max", "value": "1.27E−03"},
      {"measurement": "time before a significant difference (p<0.05) in maximum absorbance from time 0", "setting": "[1]; all levels of AA added", "value": 2, "unit": "h"},
      {"measurement": "anthocyanin survival of control treatment", "setting": "[2]", "value": 84, "unit": "%"}
    ]}
  ]
}
